Source: DBAASP
Values after ≈ are worked out from the molar mass of the structure shown.

How the values were obtained:
Assay in all cases: ≥ marks a high value that may be exact or a test limit, other limits are often not marked, values filed in µg/mL are converted to µM
[1] = test system: Staphylococcus aureus USA 300
[2] = test system: Escherichia coli ATCC 25922
[3] = test system: Bacillus subtilis 168
[4] = test system: Staphylococcus aureus
[5] = test system: Micrococcus luteus
[6] = test system: Klebsiella pneumoniae ATCC 13883
[7] = test system: Pseudomonas aeruginosa PAO1
[8] = test system: Bacillus subtilis ATCC 23857
[9] = test system: Candida albicans ATCC 90028
[10] = test system: Staphylococcus aureus NCTC 8325
[11] = test system: Staphylococcus aureus NCTC 10788
[12] = test system: Escherichia coli
[13] = test system: Klebsiella pneumoniae ATCC 700603
[14] = test system: Staphylococcus aureus ATCC 25923

## CC[C@H](C)[C@H](NC(=O)[C@H](C)NC(=O)[C@H](CCCCN)NC(=O)[C@H](C)N)C(=O)N[C@H](C(=O)N[C@@H](CCCN=C(N)N)C(=O)N[C@H](C(=O)N[C@H](C(=O)N[C@@H](CCC(=O)O)C(=O)N[C@@H](CCC(N)=O)C(=O)N[C@@H](C)C(=O)N1CCC[C@H]1C(=O)N[C@@H](CCCCN)C(=O)N[C@H](C(=O)N[C@@H](C)C(=O)N[C@@H](CCCCN)C(=O)N[C@@H](C)C(=O)N[C@@H](CCCCN)C(=O)N[C@@H](CCCCN)C(=O)N[C@@H](CO)C(=O)O)[C@@H](C)O)[C@@H](C)CC)[C@@H](C)O)C(C)C [AKAIVRTIEQAPKTAKAKKS]
[1]
  MIC: ≥ 128 µM

## CC[C@H](C)[C@H](NC(=O)CNC(=O)[C@H](CC(C)C)NC(=O)[C@H](CO)NC(=O)[C@H](CCC(=O)O)NC(=O)[C@H](CCSC)NC(=O)[C@H](CCCCN)NC(=O)[C@H](C)NC(=O)[C@H](CCCCN)NC(=O)[C@H](CC(=O)O)NC(=O)[C@@H](NC(=O)[C@@H](N)C(C)C)[C@@H](C)CC)C(=O)N[C@H](C(=O)N[C@@H](CO)C(=O)N[C@@H](CCCN=C(N)N)C(=O)N[C@@H](CC(=O)O)C(=O)N[C@H](C(=O)N[C@H](C(=O)O)[C@@H](C)O)[C@@H](C)O)[C@@H](C)O [VIDKAKMESLGITSRDTT]
[2]
  MIC: 15.9 µM (≈ 31.2 µg/mL)
[3]
  MIC: 7.94 µM (≈ 15.6 µg/mL)
[4]
  MIC: 15.9 µM (≈ 31.2 µg/mL)
[5]
  MIC: 7.94 µM (≈ 15.6 µg/mL)

## CC(C)C[C@H](NC(=O)[C@H](CC(C)C)NC(=O)[C@H](CCCCN)NC(=O)CNC(=O)[C@H](CC(C)C)NC(=O)[C@H](CC(C)C)NC(=O)[C@H](CO)NC(=O)[C@H](CC(C)C)NC(=O)[C@H](CC(C)C)NC(=O)[C@H](CC(C)C)NC(=O)[C@H](CO)NC(=O)[C@H](CC(C)C)NC(=O)CN)C(N)=O [GLSLLLSLLGKLL]
[2]
  MIC: > 25 µM
[1]
  MIC: 1.6 µM (≈ 2.14 µg/mL)
[6]
  MIC: 25 µM (≈ 33.5 µg/mL)
[7]
  MIC: > 25 µM

## CC[C@H](C)[C@H](NC(=O)CN)C(=O)N[C@H](C(=O)N[C@@H](CCCCN)C(=O)NCC(=O)N[C@H](C(=O)N[C@H](C(=O)N[C@@H](CCCCN)C(=O)N[C@@H](CCCCN)C(=O)N[C@H](C(=O)N[C@H](C(=O)N[C@@H](CCCCN)C(N)=O)[C@@H](C)CC)[C@@H](C)CC)[C@@H](C)CC)[C@@H](C)CC)[C@@H](C)CC [GIIKGIIKKIIK]
[8]
  MIC: 8 µM (≈ 10.6 µg/mL)
[2]
  MIC: 64 µM (≈ 84.7 µg/mL)

## CC[C@H](C)[C@H](NC(=O)CN)C(=O)N[C@@H](Cc1ccccc1)C(=O)N[C@@H](CC(N)=O)C(=O)N[C@H](C(=O)N[C@@H](Cc1ccccc1)C(=O)N[C@@H](CCCCN)C(=O)NCC(=O)N[C@@H](C)C(=O)N[C@@H](CC(C)C)C(=O)N[C@@H](CCCCN)C(=O)N[C@H](C(=O)N[C@@H](C)C(=O)NCC(=O)N[C@@H](CCCCN)C(=O)N[C@@H](Cc1cnc[nH]1)C(=O)N[C@H](C(=O)N[C@@H](C)C(=O)NCC(=O)N[C@@H](CO)C(=O)N[C@@H](CC(C)C)C(=O)N[C@@H](CC(C)C)C(=O)N[C@@H](CC(N)=O)C(=O)N[C@@H](CCC(N)=O)C(=O)N[C@@H](CC(C)C)C(=O)N[C@@H](CCCCN)C(=O)N[C@H]1CSSC[C@@H](C(=O)O)NC(=O)[C@H](CCC(=O)O)NC(=O)CNC(=O)[C@H](CO)NC(=O)[C@H](C(C)C)NC(=O)[C@H](CCCCN)NC1=O)C(C)C)[C@@H](C)O)C(C)C [GIFNVFKGALKTAGKHVAGSLLNQLKCKVSGEC]
[9]
  MIC: ≥ 40 µM
[2]
  MIC: 4 µM (≈ 13.7 µg/mL)
[10]
  MIC: 9 µM (≈ 30.8 µg/mL)

## CC[C@H](C)[C@H](NC(=O)CNC(=O)[C@H](C)NC(=O)[C@@H](NC(=O)[C@@H](NC(=O)CN)[C@@H](C)CC)[C@@H](C)CC)C(=O)N[C@@H](C)C(=O)N[C@H](C(=O)N[C@@H](CCCCN)C(=O)N[C@H](C(=O)N[C@@H](CCCCN)C(=O)N[C@@H](CCCCN)C(N)=O)[C@@H](C)CC)[C@@H](C)CC [GIIAGIAIKIKK]
[8]
  MIC: ≥ 32 µM
[2]
  MIC: 64 µM (≈ 78.3 µg/mL)

## CC[C@H](C)[C@H](NC(=O)[C@H](CCCCN)NC(=O)CNC(=O)[C@H](Cc1ccccc1)NC(=O)[C@H](CC(C)C)NC(=O)CN)C(=O)N[C@@H](CC(C)C)C(=O)NCC(=O)N[C@H](C(=O)NCC(=O)N[C@@H](CCCCN)C(=O)N[C@@H](CCCCN)C(=O)N[C@H](C(=O)N[C@@H](CC(C)C)C(=O)N[C@H]1CSSC[C@@H](C(=O)O)NC(=O)[C@H](CCSC)NC(=O)CNC(=O)[C@H](CO)NC(=O)[C@H](CC(C)C)NC(=O)CNC1=O)C(C)C)C(C)C [GLFGKILGVGKKVLCGLSGMC]
[9]
  MIC: ≥ 50 µM
[2]
  MIC: 3 µM (≈ 6.24 µg/mL)
[10]
  MIC: 12.5 µM (≈ 26 µg/mL)

## CC[C@H](C)[C@H](NC(=O)[C@@H](NC(=O)[C@@H]1CCCN1C(=O)[C@H](CC(C)C)NC(=O)[C@@H](N)Cc1ccccc1)C(C)C)C(=O)N[C@@H](C)C(=O)NCC(=O)N[C@@H](CC(C)C)C(=O)N[C@@H](CC(C)C)C(=O)N[C@@H](CO)C(=O)N[C@@H](CCCCN)C(=O)N[C@@H](CC(C)C)C(=O)N[C@@H](Cc1ccccc1)C(N)=O [FLPVIAGLLSKLF]
[10]
  MIC: 8 µM (≈ 11.3 µg/mL)
[11]
  MIC: 8 µM (≈ 11.3 µg/mL)

## CC[C@H](C)[C@H](NC(=O)[C@H](CC(C)C)NC(=O)[C@H](CO)NC(=O)[C@@H](NC(=O)[C@H](CC(C)C)NC(=O)[C@H](CO)NC(=O)[C@@H]1CCCN1C(=O)[C@H](CC(C)C)NC(=O)CNC(=O)[C@H](CCCCN)NC(=O)[C@H](C)NC(=O)[C@H](CC(C)C)NC(=O)[C@H](C)NC(=O)CNC(=O)[C@@H](NC(=O)[C@@H](NC(=O)[C@H](CO)NC(=O)CNC(=O)[C@H](Cc1ccccc1)NC(=O)[C@@H](N)Cc1ccccc1)[C@@H](C)CC)[C@@H](C)CC)[C@@H](C)CC)C(=O)N[C@@H](CCCCN)C(=O)N[C@@H](CCCCN)C(N)=O [FFGSIIGALAKGLPSLISLIKK]
[2]
  MIC: 6 µM (≈ 13.6 µg/mL)
[10]
  MIC: 12.5 µM (≈ 28.4 µg/mL)

## CC[C@H](C)[C@H](NC(=O)[C@H](CCSC)NC(=O)[C@H](CO)NC(=O)CNC(=O)[C@H](Cc1ccccc1)NC(=O)[C@@H](N)Cc1ccccc1)C(=O)NCC(=O)N[C@@H](C)C(=O)N[C@@H](CC(C)C)C(=O)N[C@@H](C)C(=O)N[C@@H](CCCCN)C(=O)NCC(=O)N[C@@H](CC(C)C)C(=O)N1CCC[C@H]1C(=O)N[C@@H](CO)C(=O)N[C@@H](CC(C)C)C(=O)N[C@H](C(=O)N[C@@H](CO)C(=O)N[C@@H](CC(C)C)C(=O)N[C@H](C(=O)N[C@@H](CCCCN)C(=O)N[C@@H](CCCCN)C(N)=O)[C@@H](C)CC)[C@@H](C)CC [FFGSMIGALAKGLPSLISLIKK]
[2]
  MIC: 12.5 µM (≈ 28.6 µg/mL)
[10]
  MIC: 12.5 µM (≈ 28.6 µg/mL)

## CC(C)C[C@H](NC(=O)[C@H](CC(=O)O)NC(=O)[C@H](CC(N)=O)NC(=O)[C@H](C)NC(=O)[C@H](CC(N)=O)NC(=O)[C@H](CC(=O)O)NC(=O)[C@@H](N)C(C)C)C(=O)N[C@@H](CC(C)C)C(=O)N[C@@H](CO)C(=O)N[C@@H](CCCCN)C(=O)N[C@H](C(=O)N[C@@H](CCCCN)C(=O)N[C@@H](CCCCN)C(=O)N[C@@H](CC(=O)O)C(=O)N[C@@H](CCCCN)C(=O)N[C@@H](CO)C(=O)N[C@@H](CC(=O)O)C(=O)O)C(C)C [VDNANDLLSKVKKDKSD]
[2]
  MIC: 4.39 µM (≈ 8.3 µg/mL)
[3]
  MIC: 1.11 µM (≈ 2.1 µg/mL)
[4]
  MIC: 8.26 µM (≈ 15.6 µg/mL)
[5]
  MIC: 4.39 µM (≈ 8.3 µg/mL)

## CC[C@H](C)[C@H](NC(=O)[C@H](CCCCN)NC(=O)[C@H](CCCCN)NC(=O)[C@H](C)NC(=O)[C@@H](NC(=O)[C@H](C)NC(=O)[C@H](C)NC(=O)[C@H](CC(C)C)NC(=O)[C@H](C)NC(=O)[C@H](CCCCN)NC(=O)[C@H](CC(C)C)NC(=O)[C@H](CC(N)=O)NC(=O)[C@@H](N)CC(C)C)C(C)C)C(=O)N[C@@H](CC(C)C)C(N)=O [LNLKALAAVAKKIL]
[8]
  MIC: 8 µM (≈ 11.7 µg/mL)
[12]
  MIC: 8 µM (≈ 11.7 µg/mL)
[13]
  MIC: 16 µM (≈ 23.4 µg/mL)
[14]
  MIC: 16 µM (≈ 23.4 µg/mL)

## CC[C@H](C)[C@@H]1NC(=O)[C@H](C)NC(=O)[C@@H](NC(=O)[C@H](Cc2ccccc2)NC(=O)[C@@H](NC(=O)[C@H](CCCCN)NC(=O)[C@H](CO)NC(=O)[C@H](Cc2ccccc2)NC(=O)[C@@H](NC(=O)[C@H](CCCCN)NC(=O)[C@H](C)NC(=O)[C@H](C)NC(=O)[C@@H](NC(=O)[C@H](CO)NC(=O)[C@H](C)NC(=O)[C@@H](NC(=O)[C@@H](NC(=O)[C@@H]2CCCN2C(=O)[C@H](CC(C)C)NC(=O)[C@@H](N)Cc2ccccc2)[C@@H](C)CC)[C@@H](C)CC)C(C)C)C(C)C)[C@@H](C)CC)CSSC[C@@H](C(=O)O)NC(=O)[C@H](CCCCN)NC(=O)[C@H](CCCCN)NC(=O)[C@H](CO)NC1=O [FLPIIASVAAKVFSKIFCAISKKC]
[9]
  MIC: 7 µM (≈ 18.1 µg/mL)
[2]
  MIC: 5 µM (≈ 12.9 µg/mL)
[10]
  MIC: 7 µM (≈ 18.1 µg/mL)

## CC[C@H](C)[C@H](NC(=O)[C@H](CCCCN)NC(=O)[C@H](CC(=O)O)NC(=O)[C@H](CC(C)C)NC(=O)[C@H](C)NC(=O)[C@H](CO)NC(=O)[C@H](C)NC(=O)[C@H](CC(C)C)NC(=O)[C@H](CC(C)C)NC(=O)[C@H](CC(N)=O)NC(=O)[C@H](CCCCN)NC(=O)[C@H](C)NC(=O)[C@H](C)NC(=O)CNC(=O)[C@H](CCCCN)NC(=O)[C@H](Cc1ccccc1)NC(=O)[C@@H](NC(=O)[C@H](CC(=O)O)NC(=O)[C@H](CCSC)NC(=O)[C@H](CC(C)C)NC(=O)CN)C(C)C)C(=O)N[C@@H](CCCN=C(N)N)C(=O)N[C@H]1CSSC[C@@H](C(=O)O)NC(=O)[C@H](CCCCN)NC(=O)[C@H]([C@@H](C)O)NC(=O)[C@H](C(C)C)NC(=O)[C@H](CCCCN)NC1=O [GLMDVFKGAAKNLLASALDKIRCKVTKC]
[9]
  MIC: ≥ 100 µM
[2]
  MIC: 13 µM (≈ 38.9 µg/mL)
[10]
  MIC: ≥ 100 µM
